Bounds are passed on as bounds.

`CCCCc1nc2nncc-2c2nc(-c3ccc(O)cc3)[nH]n12` [Example 12, 5-n-butyl-2-(4-hydroxyphenyl)pyrazolo[4,3-e]-1,2,4-triazolo[1,5-c]pyrimidine] came in with a melting point of more than 280 °C.

In turn, `CCCCc1nc2nncc-2c2nc(-c3ccc(OCCC)cc3)[nH]n12` [Example 14, 5-n-butyl-2-(4-propoxyphenyl)pyrazolo[4,3-e]-1,2,4-triazolo[1,5-c]pyrimidine] had a melting point of 191 to 192 °C.

In turn, `CCCCc1nc2nncc-2c2nc(-c3cc(OC)c(OC)c(OC)c3)[nH]n12` [Example 15, 5-n-butyl-2-(3,4,5-trimethoxyphenyl)pyrazolo[4,3-e]-1,2,4-triazolo[1,5-c]pyrimidine] yielded a melting point of 259 to 262 °C.

Compound `CCCCc1nc2nncc-2c2nc(-c3ccc([N+](=O)[O-])cc3)[nH]n12` [Example 17, 5-n-butyl-2-(4-nitrophenyl)pyrazolo[4,3-e]-1,2,4-triazolo[1,5-c]pyrimidine] had a melting point of 279 to 280.5 °C.

In turn, `CCCCc1nc2nncc-2c2nc(-c3cccnc3)[nH]n12` [Example 18, 5-n-butyl-2-(3-pyridyl)pyrazolo[4,3-e]-1,2,4-triazolo[1,5-c]pyrimidine] had a melting point of 217 to 219 °C.

On to `CCCCc1nc2nncc-2c2nc(-c3ccco3)[nH]n12` [Example 19, 5-n-butyl-2-(2-furyl)pyrazolo[4,3-e]-1,2,4-triazolo[1,5-c]pyrimidine], for which the melting point was in the range of 253 to 254.5 °C.

Take `CCCCc1nc2nncc-2c2nc(-c3cccs3)[nH]n12` [Example 20, 5-n-butyl-2-(2-thienyl)pyrazolo[4,3-e]-1,2,4-triazolo[1,5-c]pyrimidine]: the melting point is 214 to 216 °C.

As to `CCCc1nc2ccccc2c2nc(-c3ccccc3)nn12` [Example 21, 2-phenyl-5-propyl-1,2,4-triazolo[1,5-c]quinazoline], the melting point lay in the range of 143 to 144 °C.

In turn, `CCCCc1nc2ccccc2c2nc(-c3ccccc3Cl)nn12` [Example 24, 5-n-butyl-2-(2-chlorophenyl)-1,2,4-triazolo[1,5-c]quinazoline] yielded a melting point of 104.5 to 105.55 °C.

Compound `CCCCc1nc2ccccc2c2nc(-c3cccc(Cl)c3)nn12` [Example 25, 5-n-butyl-2-(3-chlorophenyl)-1,2,4-triazolo[1,5-c]quinazoline] returned a melting point of 129 to 131 °C.

The compound `CCCCc1nc2ccccc2c2nc(-c3ccc(C(C)(C)C)cc3)nn12` [Example 29, 5-n-butyl-2-(4-t-butylphenyl)-1,2,4-triazolo[1,5-c]quinazoline] returned a melting point of 106 to 108 °C.

In turn, `CCCCc1nc2ccccc2c2nc(-c3ccccc3OC)nn12` [Example 33, 5-n-butyl-2-(2-methoxyphenyl)-1,2,4-triazolo[1,5-c]quinazoline] displayed a melting point of 106.5 to 107.5 °C.

As for `CCCCc1nc2ccccc2c2nc(-c3ccc(OCCC)cc3)nn12` [Example 36, 5-n-butyl-2-(4-propoxyphenyl)-1,2,4-triazolo[1,5-c]quinazoline], the melting point lay within 128 to 129 °C.

`CCCCc1nc2ccccc2c2nc(-c3cc(OC)c(OC)c(OC)c3)nn12` [Example 37, 5-n-butyl-2-(3,4,5-trimethoxyphenyl)-1,2,4-triazolo[1,5-c]quinazoline]: the melting point is 130 to 133 °C.

Compound `CCCCc1nc2ccccc2c2nc(-c3ccc(N(C)C)cc3)nn12` [Example 38, 5-n-butyl-2-[4-(N,N-dimethylamino)phenyl]-1,2,4-triazolo[1,5-c]quinazoline] registered a melting point of 148.5 to 150 °C.

Compound `CCCCc1nc2ccccc2c2nc(-c3ccc([N+](=O)[O-])cc3)nn12` [Example 39, 5-n-butyl-2-(4-nitrophenyl)-1,2,4-triazolo[1,5-c]quinazoline] returned a melting point of 194 to 195 °C.

`CCCCc1nc2ccccc2c2nc(-c3cccnc3)nn12` [Example 40, 5-n-butyl-2-(3-pyridyl)-1,2,4-triazolo[1,5-c]quinazoline]: the melting point lay within 140 to 141.5 °C.

In the case of `CCCCc1nc2ccccc2c2nc(-c3cccs3)nn12` [Example 42, 5-n-butyl-2-(2-thienyl)-1,2,4-triazolo[1,5-c]quinazoline], the melting point lay within 147 to 149.5 °C.

The compound `CCCCc1nc2cccc(F)c2c2nc(-c3ccccc3)nn12` [Example 43, 5-n-butyl-10-fluoro-2-phenyl-1,2,4-triazolo[1,5-c]quinazoline] returned a melting point of 123 to 124 °C.

In the case of `CCCCc1nc2ccc(Br)cc2c2nc(-c3ccccc3)nn12` [Example 47, 9-bromo-5-n-butyl-2-phenyl-1,2,4-triazolo[1,5-c]quinazoline], the melting point lay in the range of 129.5 to 132.5 °C.

`CCCCc1nc2cc(OC)c(OC)cc2c2nc(-c3ccccc3)nn12` [Example 48, 5-n-butyl-8,9-dimethoxy-2-phenyl-1,2,4-triazolo[1,5-c]quinazoline] gave a melting point of 150 to 152 °C.

`CCCCc1nc2cccc(C)c2c2nc(-c3ccccc3)nn12` [Example 49, 5-n-butyl-10-methyl-2-phenyl-1,2,4-triazolo[1,5-c]quinazoline]: the melting point was 123 to 124 °C.

`CCCCc1nc2nncc-2c2nc(-c3ccccc3OC)[nH]n12` [Example 53, 5-n-butyl-2-(2-methoxyphenyl)pyrazolo[4,3-e]-1,2,4-triazolo[1,5-c]pyrimidine]: the melting point lay within 157 to 160 °C.

Turning to `CCCCc1nc2nncc-2c2nc(-c3ccc(SC)cc3)[nH]n12` [Example 56, 5-n-butyl-2-(4-methylthiophenyl)pyrazolo[4,3-e]-1,2,4-triazolo[1,5-c]pyrimidine], the melting point is 204 to 205 °C.

With `CCCCc1nc2ccccc2c2nc(-c3cccc(OC)c3)nn12` [Example 57, 5-n-butyl-2-(3-methoxyphenyl)-1,2,4-triazolo[1,5-c]quinazoline], the melting point was in the range of 118 to 119 °C.

The compound `CCCCc1nc2ccccc2c2nc(-c3ccc(SC)cc3)nn12` [Example 58, 5-n-butyl-2-(4-methylthiophenyl)-1,2,4-triazolo[1,5-c]quinazoline] had a melting point of 140.5 to 141.5 °C.

In turn, `c1ccc(-c2nc3c4cnnc-4nc(-c4ccccc4)n3[nH]2)cc1` [Example 59, 2,5-diphenylpyrazolo[4,3-e]-1,2,4-triazolo[1,5-c]pyrimidine] gave a melting point of 272.5 to 275 °C.

In turn, `CCCc1nc2nncc-2c2nc(-c3ccc(C)cc3)[nH]n12` [Example 60, 2-(4-methylphenyl)-5-n-propylpyrazolo[4,3-e]-1,2,4-triazolo[1,5-c]pyrimidine] had a melting point of 274 to 275 °C.

Take `CCc1nc2nncc-2c2nc(-c3ccc(OC)cc3)[nH]n12` [Example 63, 5-ethyl-2-(4-methoxyphenyl)pyrazolo[4,3-e]-1,2,4-triazolo[1,5-c]pyrimidine]: the melting point lay in the range of 274 to 277 °C.

`CCc1nc2nncc-2c2nc(-c3ccc(Cl)cc3)[nH]n12` [Example 64, 2-(4-chlorophenyl)-5-ethylpyrazolo[4,3-e]-1,2,4-triazolo[1,5-c]pyrimidine] returned a melting point of more than 280 °C.

For the compound `CCc1nc2nncc-2c2nc(-c3ccc(C)cc3)[nH]n12` [Example 65, 5-ethyl-2-(4-methylphenyl)pyrazolo[4,3-e]-1,2,4-triazolo[1,5-c]pyrimidine], the melting point was more than 280 °C.

`CCc1nc2ccccc2c2nc(-c3ccc(Br)cc3)nn12` [Example 66, 2-(4-bromophenyl)-5-ethyl-1,2,4-triazolo[1,5-c]quinazoline] returned a melting point of 197 to 198 °C.

`CCc1nc2ccccc2c2nc(-c3ccc(F)cc3)nn12` [Example 67, 5-ethyl-2-(4-fluorophenyl)-1,2,4-triazolo[1,5-c]quinazoline] registered a melting point of 195 to 196 °C.

Compound `CCc1nc2ccccc2c2nc(-c3ccc(Cl)cc3)nn12` [Example 68, 2-(4-chlorophenyl)-5-ethyl-1,2,4-triazolo[1,5-c]quinazoline] registered a melting point of 197 to 198 °C.

Take `CCc1nc2ccccc2c2nc(-c3ccc(C)cc3)nn12` [Example 69, 5-ethyl-2-(4-methylphenyl)-1,2,4-triazolo[1,5-c]quinazoline]: the melting point lay within 147 to 148 °C.

On to `CCc1nc2ccccc2c2nc(-c3ccc(OC)cc3)nn12` [Example 71, 5-ethyl-2-(4-methoxyphenyl)-1,2,4-triazolo[1,5-c]quinazoline], for which the melting point lay in the range of 167.5 to 168 °C.

Turning to `CCOc1ccc(-c2nc3c4ccccc4nc(CC)n3n2)cc1` [Example 72, 2-(4-ethoxyphenyl)-5-ethyl-1,2,4-triazolo[1,5-c]quinazoline], the melting point was in the range of 153 to 154 °C.

In the case of `CCCc1nc2ccc(Cl)cc2c2nc(-c3ccccc3)nn12` [Example 73, 9-chloro-2-phenyl-5-n-propyl-1,2,4-triazolo[1,5-c]quinazoline], the melting point lay in the range of 140.5 to 141.5 °C.

In turn, `CCCCc1nc2ccc(Cl)cc2c2nc(-c3ccc(F)cc3)nn12` [Example 74, 5-n-butyl-9-chloro-2-(4-fluorophenyl)-1,2,4-triazolo[1,5-c]quinazoline] gave a melting point of 147.5 to 150 °C.

`CCCCc1nc2ccc(Cl)cc2c2nc(-c3ccc(C)cc3)nn12` [Example 77, 5-n-butyl-9-chloro-2-(4-methylphenyl)-1,2,4-triazolo[1,5-c]quinazoline] had a melting point of 141 to 143 °C.

The compound `CCCc1nc2cc(Cl)ccc2c2nc(-c3ccccc3)nn12` [Example 79, 8-chloro-2-phenyl-5-n-propyl-1,2,4-triazolo[1,5-c]quinazoline] yielded a melting point of 147 to 149 °C.

Compound `CCCCc1nc2cc(Cl)ccc2c2nc(-c3ccc(F)cc3)nn12` [Example 80, 5-n-butyl-8-chloro-2-(4-fluorophenyl)-1,2,4-triazolo[1,5-c]quinazoline] had a melting point of 185.5 to 186.5 °C.

`CCCCc1nc2cc(Cl)ccc2c2nc(-c3ccc(C)cc3)nn12` [Example 83, 5-n-butyl-8-chloro-2-(4-methylphenyl)-1,2,4-triazolo[1,5-c]quinazoline]: the melting point was 134 to 134.5 °C.

Compound `CCCCc1nc2ccc([N+](=O)[O-])cc2c2nc(-c3ccccc3)nn12` [Example 85, 5-n-butyl-9-nitro-2-phenyl-1,2,4-triazolo[1,5-c]quinazoline] registered a melting point of 205.5 to 206 °C.

The values are drawn from patent US20040142952A1, “Triazoloquinazoline and pyrazolotriazolopyrimidine derivatives, medicinal compositions, adenosine a3 receptor affinity agents, ocular tension lowering agents, preparations for preventing and treating glaucoma and method of lowering ocular tension” (priority 2001, published 2004).
